According to patent US5663196A, “Methods for treating neoplastic disorders” (Boston University, priority 1993, dated 1997):
Read-outs that look alike come from different tables or passages of the source.

Columns and labels:
[1] = test system: BW8767 cells (BW resistant mutant); test: 3H-Thymidine Incorporation, BW8767; assay type: cell-based; settings: Mus musculus, read-out: 3H-Thymidine Incorporation (DNA Synthesis) Inhibition (%)
Description: (§1) 2) The ^3 H-Thymidine Incorporation Test as described by Ju, S. T., Dorf, M. E. J. Immunol. 1985, 134, 3722. This test was used for monitoring cellular proliferation by monitoring DNA synthesis. The results are expressed as percent ^3 H-thymidine incorporation relative to an untreated control:
(§2) [% ^3 H-thymidine incorporation]=[cpm agent treated cells]/[cpm
(§3) where cpm=counts per minute. Treatments resulting in [% ^3 H-thymidine incorporation] of <50% are considered active.
(§4) The ^3 H-thymidine incorporation assay therefore measures the amount of DNA synthesis when the cells are in the "S" phase of the cell cycle, and is used to assess cell proliferation. Cancer cells, which have a very rapid cell cycle turnover, normally incorporate large amounts of tritium (^3 H) unless inhibited by an exogenous agent. […] While the trypan blue dye exclusion test is an indicator of cell death, the ^3 H-thymidine incorporation test indicates a cytostatic status (not necessarily cytotoxic) of the cell. As previously noted, this latter test was the primary screen used to guide the isolation to the active agent.
(§5) The final in vitro assays performed with the preferred purified active agent were intended to examine the scope of the activity in the trypan blue assay against a wider range of tumor cell lines (Tables 10 and 11). These cell lines included a […] lymphoma BW8767, a BW mutant which is more resistant than the BW cell lines used in other assays, as evidenced by the results in Tables 10 and 11.

[2] = test system: BW (BW5147) lymphoma cells; test: 3H-Thymidine Incorporation, BW (BW5147); assay type: cell-based, mouse
Description: as §1, §2, §3
The ^3 H-thymidine incorporation assay therefore measures the amount of DNA synthesis when the cells are in the "S" phase of the cell cycle, and is used to assess cell proliferation. […]
With the preferred purified active agent in hand, ^3 H-thymidine incorporation and trypan blue assays were initially performed at different dosages using LK and BW lymphoma ceil lines in order to confirm the activity of the preferred purified active agent, and to bracket the active concentration range for the preferred purified active agent. […] In addition, the time course of cell viability in the trypan blue assay was also monitored in order to best optimize subsequent assays to ensure that the cells were still viable at the time of measurement, and to ensure a nontoxic response of the cells to the agent. […] Consequently the results of the in vitro assays employing purified agent were all recorded after 24 hours. […]

[3] = test system: RDM-4 cells (type T lymphoma); test: 3H-Thymidine Incorporation, RDM-4; assay type: cell-based; settings: Mus musculus, read-out: 3H-Thymidine Incorporation (DNA Synthesis) Inhibition (%)
Description: as §1, §2, §3, §4, §5

[4] = test system: EL-4 cells (type T lymphoma); test: 3H-Thymidine Incorporation, EL-4; assay type: cell-based; settings: Mus musculus, read-out: 3H-Thymidine Incorporation (DNA Synthesis) Inhibition (%)
Description: as §1, §2, §3, §4

C7 cloned T-cells = test: Trypan Blue cell viability, C7; assay type: cell-based; settings: Mus musculus, read-out: Trypan Blue Cell Viability (%)
Description: (§6) 1) The Trypan Blue Dye Exclusion Test for monitoring ceil viability as described by Phillips, H. J., in Tissue Culture Methods and Applications; Kruse, P. F., Jr., Patterson, M. K., Eds.; Academic Press, New York, 1973, 406, and by Wu, Y. W., Chik, L. L., Knazek, R. A. Cancer Research 1989, 49, 3754. The results of this assay are expressed as a percentage of viable cells:
(§7) [% viable cells]=[no. of alive cells]/[total no. of cells]×100
(§8) where the total no. cells=dead cells+alive cells. The results are compared directly with an untreated control, which typically show a three-to-four-fold increase for cancer cells, and a two-fold increase for normal cells. Treatments resulting in [% viable cells] of <30% are considered cytotoxic. Therefore, the trypan blue dye exclusion test was used to assess the number of dead and alive cells using various cell lines upon treatment with the crude and purified agent. This test provides a simple clue to the acute or late onset of a cytotoxic response. Readings for this and all other in vitro assays were taken 48 hours after treatment with the unpurified agent, and also […] after treatment for the purified agent. Thus, the trypan blue dye exclusion assay functions to confirm whether or not the cells were viable at the time readings were taken for other bioassays.
Each of these three fractions were then tested in the trypan blue and ^3 H-thymidine incorporation assays along with the original CsA as a control, against the LS cell line, which was the most sensitive of the cancer lines (Tables 3 and 4). […] The results of the trypan blue and ^3 H-thymidine incorporation assays against the three cell lines are compiled in Tables 5a-5f.

[5] = test system: CT26 cells (colon adenocarcinoma); test: Trypan Blue cell viability, CT26; assay type: cell-based; settings: Mus musculus, CT26, read-out: Trypan Blue Cell Viability (%)
Description: as §6, §7, §8, §5

LK lymphoma cells = test: Trypan Blue cell viability, LK; assay type: cell-based; settings: Mus musculus, read-out: Trypan Blue Cell Viability (%)
Description: as §6, §7, §8
With the preferred purified active agent in hand, ^3 H-thymidine incorporation and trypan blue assays were initially performed at different dosages using LK and BW lymphoma ceil lines in order to confirm the activity of the preferred purified active agent, and to bracket the active concentration range for the preferred purified active agent. With a molecular weight of 328, a 1 μg/mL solution corresponds to 3 μM concentration. In addition, the time course of cell viability in the trypan blue assay was also monitored in order to best optimize subsequent assays to ensure that the cells were still viable at the time of measurement, and to ensure a nontoxic response of the cells to the agent. Toxicity of the agent would have been observed as cell death within 2 hours. The trypan blue assays (Table 7), run at 30 μM and 3 μM of purified agent (10 and 1 μg/mL, respectively), indicated excellent cell viability after 24 hours, though with a significant drop in viability after 48 hours at a 30 μM dose of preferred purified active agent. Consequently the results of the in vitro assays employing purified agent were all recorded after 24 hours. In the ^3 H-thymidine incorporation assay (Table 8), dosages ranging from 0.1 to 250 μg/mL were examined.

P815 cells (mastocytoma) [6] = test: 3H-Thymidine Incorporation, P815; assay type: cell-based; settings: Mus musculus, read-out: 3H-Thymidine Incorporation (DNA Synthesis) Inhibition (%)
Description: as §1, §2, §3, §4

[7] = test system: EL-4 cells (type T lymphoma); test: Trypan Blue cell viability, EL-4; assay type: cell-based; settings: Mus musculus, EL4, read-out: Trypan Blue Cell Viability (%)
Description: as §6, §7, §8

P815 cells (mastocytoma) [8] = test: Trypan Blue cell viability, P815; assay type: cell-based; settings: Mus musculus, P815, read-out: Trypan Blue Cell Viability (%)
Description: as §6, §7, §8

[9] = test system: RDM-4 cells (type T lymphoma); test: Trypan Blue cell viability, RDM-4; assay type: cell-based; settings: Mus musculus, read-out: Trypan Blue Cell Viability (%)
Description: as §6, §7, §8, §5

SMILES: CC1=C2C(=O)C=C(CO)[C@@H]2[C@H]2OC(=O)[C@@H](C)[C@@H]2[C@@H](O)C1 [11β,13-dihydrolactucin, 3,6-dimethyl-4-hydroxy-9-hydroxymethyl-3,3a,4,5,9a,9b-hexahydroazuleno[4,5-b]furan-2,7-dione]
- inhibition at 1 µg/mL ([1]; 1.0 μg/mL): 80%
- inhibition at 10 µg/mL ([1]; 10 μg/mL): 60%
- ED50, 3H-thymidine incorporation [2]: micromolar range
- inhibition at 0.1 µg/mL ([3]; 0.1 μg/mL): 100%
- inhibition at 0.5 µg/mL ([3]; 0.5 μg/mL): 100%
- inhibition at 1 µg/mL ([3]; 1.0 μg/mL): 80%
- inhibition at 10 µg/mL ([3]; 10 μg/mL): 60%
- inhibition at 0.1 µg/mL ([4]; EL4, 0.1 μg/mL): 100%
- inhibition at 0.5 µg/mL ([4]; EL4, 0.5 μg/mL): 100%
- inhibition at 1 µg/mL ([4]; EL4, 1.0 μg/mL): 78%
- inhibition at 10 µg/mL ([4]; EL4, 10 μg/mL): 38%
- viability at 0.1 µg/mL (C7 cloned T-cells): 100%
- viability at 0.5 µg/mL (C7 cloned T-cells): 100%
- viability at 1 µg/mL (C7 cloned T-cells): 100%
- viability at 10 µg/mL (C7 cloned T-cells): 90%
- viability at 0.1 µg/mL [5]: 100%
- viability at 0.5 µg/mL [5]: 100%
- viability at 1 µg/mL [5]: 100%
- viability at 10 µg/mL [5]: 100%
- viability at 1 µg/mL (LK lymphoma cells; 2 h): 100%
- viability at 10 µg/mL (LK lymphoma cells; 2 h): 100%
- viability at 1 µg/mL (LK lymphoma cells; 5 h): 100%
- viability at 10 µg/mL (LK lymphoma cells; 5 h): 100%
- viability at 1 µg/mL (LK lymphoma cells; 12 h): 100%
- viability at 10 µg/mL (LK lymphoma cells; 12 h): 100%
- viability at 1 µg/mL (LK lymphoma cells; 24 h): 100%
- viability at 10 µg/mL (LK lymphoma cells; 24 h): 85%
- viability at 1 µg/mL (LK lymphoma cells; 36 h): 90%
- viability at 10 µg/mL (LK lymphoma cells; 36 h): 72%
- viability at 1 µg/mL (LK lymphoma cells; 48 h): 90%
- viability at 10 µg/mL (LK lymphoma cells; 48 h): 60%
- inhibition at 0.1 µg/mL (P815 cells (mastocytoma) [6]; 0.1 μg/mL): 100%
- inhibition at 0.5 µg/mL (P815 cells (mastocytoma) [6]; 0.5 μg/mL): 100%
- inhibition at 1 µg/mL (P815 cells (mastocytoma) [6]; 1.0 μg/mL): 50%
- inhibition at 10 µg/mL (P815 cells (mastocytoma) [6]; 10 μg/mL): 36%
- viability at 0.1 µg/mL [7]: 100%
- viability at 0.5 µg/mL [7]: 100%
- viability at 1 µg/mL [7]: 100%
- viability at 10 µg/mL [7]: 100%
- viability at 0.1 µg/mL (P815 cells (mastocytoma) [8]): 100%
- viability at 0.5 µg/mL (P815 cells (mastocytoma) [8]): 100%
- viability at 1 µg/mL (P815 cells (mastocytoma) [8]): 100%
- viability at 10 µg/mL (P815 cells (mastocytoma) [8]): 80%
- viability at 0.1 µg/mL [9]: 100%
- viability at 0.5 µg/mL [9]: 100%
- viability at 1 µg/mL [9]: 100%
- viability at 10 µg/mL [9]: 90%
